Assay results as given in patent US20080221116A1, “ISOXAZOLINE ALPHA 1a/1d ADRENORECEPTOR ANTAGONISTS” (priority 2006, published 2008).
Values joined by “and” are separate entries in the source; they are usually repeats but may differ in a detail not shown here. Equal values may be shown once. Read-outs that look alike come from different tables or passages of the source.

What was measured:
Conditions in all cases: COS-7 membranes
[1] = target: T1, α1b-AR (Homo sapiens, UniProt P35368); test: α1-Adrenergic Receptor Binding Assay, 125I-HEAT radio-ligand binding, transfected COS-7 cell membranes, α1b subtype
T1 construct: expressed in transfected cells; host or cells: COS-7 cells (African Green monkey kidney), membranes
T1 sequence (P35368 1-520): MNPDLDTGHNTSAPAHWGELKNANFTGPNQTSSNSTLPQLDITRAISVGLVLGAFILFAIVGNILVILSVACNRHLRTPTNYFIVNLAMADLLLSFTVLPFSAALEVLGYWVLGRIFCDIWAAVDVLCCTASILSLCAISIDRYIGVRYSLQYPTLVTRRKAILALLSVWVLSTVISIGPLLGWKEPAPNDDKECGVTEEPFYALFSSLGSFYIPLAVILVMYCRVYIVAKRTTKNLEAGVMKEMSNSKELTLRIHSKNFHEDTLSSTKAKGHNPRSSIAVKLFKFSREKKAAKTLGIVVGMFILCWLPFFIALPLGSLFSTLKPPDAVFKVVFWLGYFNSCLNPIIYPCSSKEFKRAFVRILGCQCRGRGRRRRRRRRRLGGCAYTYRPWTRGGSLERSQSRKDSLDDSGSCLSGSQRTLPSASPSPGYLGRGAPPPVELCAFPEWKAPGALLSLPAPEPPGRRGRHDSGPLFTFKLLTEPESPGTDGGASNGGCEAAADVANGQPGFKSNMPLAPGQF
Method: (§1) Membranes were prepared from COS-7 cells (African Green monkey kidney SV40-transformed cells) that had been transfected with one of the three α1-AR subtypes by the following method: COS cells from ten 100 mm tissue culture plates were scraped into a 5 ml volume of TE (a mixture of 50 mM tris(hydroxymethyl)aminomethane hydrochloride (Tris-HCl) and 5 mM ethylenediaminetetraacetic acid (EDTA) at pH 7.4). The cell suspension was disrupted with a Brinkman Polytron (at a setting of 8) for 10 sec. The disrupted cells were centrifuged at 1000×g for 10 min at 4° C. Supernatants were centrifuged at 34,500×g for 20 min at 4° C. The membrane pellets were suspended in a 2 ml volume of TNE (a mixture of 50 mM Tris-HCl, 5 mM EDTA and 150 mM NaCl at pH7.4). An aliquot of the membrane suspension was stored at −70° C. until use. The protein concentration was determined using a BioRad “DC” protein assay kit following membrane solubilization with Triton X-100.
(§2) Triplicate determinations of radio-ligand binding in the presence of increasing concentrations of testing compound were made. The reagents were added to 96-well polypropylene plate wells. Each assay well contained 140 μL TNE, 25 μL 125′-2-(β-4-hydroxyphenyl)ethylaminomethyltetralone (^125I-HEAT) (specific activity 2200 Ci/mmol, Dupont-New England Nuclear, […] final), 10 μL testing compound dissolved in dimethyl sulfoxide (DMSO) ([…] to 10 μM in half-log increments, final), and 25 μL appropriate α1-AR membrane subtype suspension in TNE (0.5 ng/μL for the α1a and α1b subtypes and 13 ng/μL for the α1d subtype). The plate was incubated at rt for 1 hr. The contents of the wells were filtered through a glass filter (type C) (GF/C) membrane Unifilter plate (Packard Instruments) using the Packard Filtermate cell harvester. The filter plates were dried in a vacuum oven for 30 min at 40° C. 25 μL Microscint 20 liquid scintillation fluid (Packard Instuments) was added to each well. The radioactive content was analyzed in the TopCount microplate scintillation counter (Packard Instruments).
(§3) The Ki values (in nM) shown in Table 1 were determined using GraphPad Prism software.

[2] = target: T2, α1a-AR (Homo sapiens, UniProt P35348); test: α1-Adrenergic Receptor Binding Assay, 125I-HEAT radio-ligand binding, transfected COS-7 cell membranes, α1a subtype
T2 construct: expressed in transfected cells; host or cells: COS-7 cells (African Green monkey kidney), membranes
T2 sequence (P35348 1-466): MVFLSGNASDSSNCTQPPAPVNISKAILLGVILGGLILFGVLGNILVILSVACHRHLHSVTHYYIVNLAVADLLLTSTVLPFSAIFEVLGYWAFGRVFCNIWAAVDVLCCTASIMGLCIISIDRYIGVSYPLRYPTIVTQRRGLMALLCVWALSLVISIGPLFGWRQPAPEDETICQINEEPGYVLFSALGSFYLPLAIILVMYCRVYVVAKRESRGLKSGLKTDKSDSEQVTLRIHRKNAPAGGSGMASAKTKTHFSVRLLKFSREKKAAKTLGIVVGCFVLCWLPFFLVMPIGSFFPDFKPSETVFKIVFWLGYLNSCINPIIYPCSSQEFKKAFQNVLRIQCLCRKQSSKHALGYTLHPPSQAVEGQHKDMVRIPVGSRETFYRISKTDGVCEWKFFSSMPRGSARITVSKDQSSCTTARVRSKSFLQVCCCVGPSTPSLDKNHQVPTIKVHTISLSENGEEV
Method: as §1, §2, §3

[3] = target: T3, α1d-AR (Homo sapiens, UniProt P25100); test: α1-Adrenergic Receptor Binding Assay, 125I-HEAT radio-ligand binding, transfected COS-7 cell membranes, α1d subtype
T3 construct: expressed in transfected cells; host or cells: COS-7 cells (African Green monkey kidney), membranes
T3 sequence (P25100 1-572): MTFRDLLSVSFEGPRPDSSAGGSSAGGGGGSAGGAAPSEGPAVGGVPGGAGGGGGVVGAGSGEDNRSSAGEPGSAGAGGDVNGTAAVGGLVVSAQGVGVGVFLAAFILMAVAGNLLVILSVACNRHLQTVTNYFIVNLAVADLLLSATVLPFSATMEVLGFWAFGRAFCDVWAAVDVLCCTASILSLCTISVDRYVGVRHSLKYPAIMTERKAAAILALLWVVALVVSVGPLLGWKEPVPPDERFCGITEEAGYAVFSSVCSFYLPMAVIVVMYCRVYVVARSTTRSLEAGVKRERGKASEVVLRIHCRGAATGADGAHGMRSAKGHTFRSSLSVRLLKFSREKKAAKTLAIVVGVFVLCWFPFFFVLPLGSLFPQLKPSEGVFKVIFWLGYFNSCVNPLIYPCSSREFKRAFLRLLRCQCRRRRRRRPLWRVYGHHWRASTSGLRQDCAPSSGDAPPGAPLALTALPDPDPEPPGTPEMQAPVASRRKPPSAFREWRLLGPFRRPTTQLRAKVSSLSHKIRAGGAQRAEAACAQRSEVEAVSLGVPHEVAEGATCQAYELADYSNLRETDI
Method: as §1, §2, §3

[4] = average value, read-out: Alpha 1 Ki α1b (1) Average Value
[5] = individual values, read-out: Alpha 1 Ki α1b (2) Individual Values
[6] = average value, read-out: Alpha 1 Ki α1a (1) Average Value
[7] = individual values, read-out: Alpha 1 Ki α1a (2) Individual Values
[8] = average value, read-out: Alpha 1 Ki α1d (1) Average Value
[9] = individual values, read-out: Alpha 1 Ki α1d (2) Individual Values

Ki [1, 4] [nM]	Ki [1, 5]	Ki [2, 6] [nM]	Ki [2, 7]	Ki [3, 8] [nM]	Ki [3, 9]	SMILES
37	37 nM	0.54	0.54 nM	0.28	0.28 nM	CC(C)Oc1ccccc1N1CCN(CC2CC(C(=O)N3CCc4ccccc43)=NO2)CC1 (single isomer, unassigned) [Compound 37, (2,3-dihydro-indol-1-yl)-{(5R*)-5-[4-(2-isopropoxy-phenyl)-piperazin-1-ylmethyl]-4,5-dihydro-isoxazol-3-yl}-methanone]
258	258 nM	6.7	6.7 nM	11	11 nM	CC(C)Oc1ccccc1N1CCN(CC2CC(C(=O)N3CCCc4ccccc43)=NO2)CC1 (stereo not drawn) [Compound 26, (3,4-dihydro-2H-quinolin-1-yl)-{5-[4-(2-isopropoxy-phenyl)-piperazin-1-ylmethyl]-4,5-dihydro-isoxazol-3-yl}-methanone]
172	172 nM	6.4	6.4 nM	9.4	9.4 nM	CC(C)Oc1ccccc1N1CCN(CC2CC(CN3CCc4ccc(NCc5c(F)cccc5F)cc43)=NO2)CC1 (stereo not drawn) [Compound 7, (2,6-difluoro-benzyl)-(1-{5-[4-(2-isopropoxy-phenyl)-piperazin-1-ylmethyl]-4,5-dihydro-isoxazol-3-ylmethyl}-2,3-dihydro-1H-indol-6-yl)-amine]
128	128 nM	9.6	9.6 nM	11.6	11.6 nM	CC(C)Oc1ccccc1N1CCN(CC2CC(C(=O)N3CCc4ccc(NCc5ccccc5F)cc43)=NO2)CC1 (stereo not drawn) [Compound 15, [6-(2-fluoro-benzylamino)-2,3-dihydro-indol-1-yl]-{5-[4-(2-isopropoxy-phenyl)-piperazin-1-ylmethyl]-4,5-dihydro-isoxazol-3-yl}-methanone]
101	101 nM	1.9	1.9 nM	10	10 nM	CC(C)Oc1ccccc1N1CCN(CC2CC(CN3CCc4ccccc43)=NO2)CC1 (stereo not drawn) [Compound 4, 1-{5-[4-(2-isopropoxy-phenyl)-piperazin-1-ylmethyl]-4,5-dihydro-isoxazol-3-ylmethyl}-2,3-dihydro-1H-indole]
112	97.2 nM and 126 nM	2.23	1.35 nM and 3.1 nM	0.623	0.145 nM and 1.1 nM	CC(C)Oc1ccccc1N1CCN(CC2CC(C(=O)N3CCc4cc(F)ccc43)=NO2)CC1 (stereo not drawn) [Compound 20, (5-fluoro-2,3-dihydro-indol-1-yl)-{5-[4-(2-isopropoxy-phenyl)-piperazin-1-ylmethyl]-4,5-dihydro-isoxazol-3-yl}-methanone]

Continued, compound first:

SMILES	Ki [1, 4] [nM]	Ki [1, 5]	Ki [2, 6] [nM]	Ki [2, 7]	Ki [3, 8] [nM]	Ki [3, 9]
CC(C)Oc1ccccc1N1CCN(CC2CC(C(=O)N3CCC(Oc4ccccc4)CC3)=NO2)CC1 (stereo not drawn) [Compound 29, {5-[4-(2-isopropoxy-phenyl)-piperazin-1-ylmethyl]-4,5-dihydro-isoxazol-3-yl}-(4-phenoxy-piperidin-1-yl)-methanone]	672	1010 nM and 333 nM	6.8	2.2 nM and 11.4 nM	8.2	5.6 nM and 10.8 nM
CC(C)Oc1ccccc1N1CCN(CC2CC(C(=O)N3CCOCC3)=NO2)CC1 (stereo not drawn) [Compound 28, {5-[4-(2-isopropoxy-phenyl)-piperazin-1-ylmethyl]-4,5-dihydro-isoxazol-3-yl}-morpholin-4-yl-methanone]	691	691 nM	3	3 nM	27.2	27.2 nM
CC(C)Oc1ccccc1N1CCN(CC2CC(C(=O)N3CCOCC3)=NO2)CC1 (single isomer, unassigned) [Compound 44, {(5S*)-5-[4-(2-isopropoxy-phenyl)-piperazin-1-ylmethyl]-4,5-dihydro-isoxazol-3-yl}-morpholin-4-yl-methanone]	521	521 nM	2.32	2.32 nM	19.9	19.9 nM
CC(C)Oc1ccccc1N1CCN(CC2CC(C(=O)N3CCC(Oc4ccccc4)CC3)=NO2)CC1 (single isomer, unassigned) [Compound 38, {(5R*)-5-[4-(2-isopropoxy-phenyl)-piperazin-1-ylmethyl]-4,5-dihydro-isoxazol-3-yl}-(4-phenoxy-piperidin-1-yl)-methanone]	639	639 nM	132	132 nM	55	55 nM
CC(C)Oc1ccccc1N1CCN(CC2CC(C(=O)N3CCN(c4ccccc4OC(C)C)CC3)=NO2)CC1 (stereo not drawn) [Compound 17, [4-(2-isopropoxy-phenyl)-piperazin-1-yl]-{5-[4-(2-isopropoxy-phenyl)-piperazin-1-ylmethyl]-4,5-dihydro-isoxazol-3-yl}-methanone]	187	187 nM	16.3	16.3 nM	6.6	6.6 nM
CC(C)Oc1ccccc1N1CCN(CC2CC(C(=O)N3CCC(C(=O)c4ccc(F)cc4)CC3)=NO2)CC1 (stereo not drawn) [Compound 18, [4-(4-fluoro-benzoyl)-piperidin-1-yl]-{5-[4-(2-isopropoxy-phenyl)-piperazin-1-ylmethyl]-4,5-dihydro-isoxazol-3-yl}-methanone]	423	423 nM	7.9	9.9 nM and 5.9 nM	21.5	22 nM and 21 nM
CC(C)Oc1ccccc1N1CCN(CC2CC(C(=O)N3CCCCC3)=NO2)CC1 (stereo not drawn) [Compound 12, {5-[4-(2-isopropoxy-phenyl)-piperazin-1-ylmethyl]-4,5-dihydro-isoxazol-3-yl}-piperidin-1-yl-methanone]	249	334 nM and 174 nM and 239 nM	1.81	1.02 nM and 1.7 nM and 2.7 nM	17.8	29 nM and 18 nM and 6.26 nM
